Like-named read-outs stand apart in the source and are kept apart here.
Columns and labels:
Test in all cases: biochemical
EPHB1 = EPHB1 (Homo sapiens, UniProt P54762); conditions: read-out: CPT-1-70-1 (1uM) % control
EPHB3 = EPHB3 (Homo sapiens, UniProt P54753); conditions: read-out: CPT-1-70-1 (1uM) % control
ERBB4 = ERBB4 (Homo sapiens, UniProt Q15303); conditions: read-out: CPT-1-70-1 (1uM) % control
ERBB2 = ERBB2 (Homo sapiens, UniProt P04626); conditions: read-out: CPT-1-70-1 (1uM) % control
Chain of ERBB2 (P04626 whole entry): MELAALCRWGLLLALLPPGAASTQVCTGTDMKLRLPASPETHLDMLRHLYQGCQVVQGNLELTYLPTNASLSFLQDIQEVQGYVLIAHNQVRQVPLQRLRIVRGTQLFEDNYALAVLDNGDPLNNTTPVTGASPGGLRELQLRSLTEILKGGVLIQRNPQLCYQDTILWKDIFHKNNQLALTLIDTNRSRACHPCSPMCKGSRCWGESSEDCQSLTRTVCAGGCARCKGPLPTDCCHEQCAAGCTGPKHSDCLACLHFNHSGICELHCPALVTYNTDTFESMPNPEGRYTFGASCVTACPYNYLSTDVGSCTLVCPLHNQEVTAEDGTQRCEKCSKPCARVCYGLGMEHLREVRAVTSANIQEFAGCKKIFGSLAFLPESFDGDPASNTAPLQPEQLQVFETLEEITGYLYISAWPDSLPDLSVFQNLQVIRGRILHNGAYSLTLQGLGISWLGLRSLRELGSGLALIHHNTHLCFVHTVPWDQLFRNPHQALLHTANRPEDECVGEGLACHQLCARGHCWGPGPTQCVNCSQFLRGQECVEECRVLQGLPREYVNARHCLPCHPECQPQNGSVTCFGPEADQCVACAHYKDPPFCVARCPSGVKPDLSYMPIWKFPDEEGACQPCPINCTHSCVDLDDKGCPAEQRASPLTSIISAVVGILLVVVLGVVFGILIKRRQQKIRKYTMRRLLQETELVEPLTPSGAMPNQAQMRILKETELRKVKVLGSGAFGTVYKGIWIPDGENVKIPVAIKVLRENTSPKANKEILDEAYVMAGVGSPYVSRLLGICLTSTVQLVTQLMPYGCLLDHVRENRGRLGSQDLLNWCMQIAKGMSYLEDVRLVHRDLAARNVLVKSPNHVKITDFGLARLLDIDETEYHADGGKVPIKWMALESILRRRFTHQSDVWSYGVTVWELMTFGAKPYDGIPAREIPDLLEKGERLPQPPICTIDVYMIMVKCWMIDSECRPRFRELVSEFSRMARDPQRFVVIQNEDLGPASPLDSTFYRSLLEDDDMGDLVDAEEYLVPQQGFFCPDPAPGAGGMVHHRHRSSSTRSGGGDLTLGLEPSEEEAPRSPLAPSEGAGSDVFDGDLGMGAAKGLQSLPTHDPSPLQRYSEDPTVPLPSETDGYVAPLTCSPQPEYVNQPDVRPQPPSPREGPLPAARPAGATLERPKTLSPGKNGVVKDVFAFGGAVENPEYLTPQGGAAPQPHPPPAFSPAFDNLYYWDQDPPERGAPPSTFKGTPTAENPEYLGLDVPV

ERK1 = ERK1 (Homo sapiens, UniProt P27361); conditions: read-out: CPT-1-70-1 (1uM) % control
EPHB2 = EPHB2 (Homo sapiens, UniProt P29323); conditions: read-out: CPT-1-70-1 (1uM) % control
Chain of EPHB2 (P29323 whole entry): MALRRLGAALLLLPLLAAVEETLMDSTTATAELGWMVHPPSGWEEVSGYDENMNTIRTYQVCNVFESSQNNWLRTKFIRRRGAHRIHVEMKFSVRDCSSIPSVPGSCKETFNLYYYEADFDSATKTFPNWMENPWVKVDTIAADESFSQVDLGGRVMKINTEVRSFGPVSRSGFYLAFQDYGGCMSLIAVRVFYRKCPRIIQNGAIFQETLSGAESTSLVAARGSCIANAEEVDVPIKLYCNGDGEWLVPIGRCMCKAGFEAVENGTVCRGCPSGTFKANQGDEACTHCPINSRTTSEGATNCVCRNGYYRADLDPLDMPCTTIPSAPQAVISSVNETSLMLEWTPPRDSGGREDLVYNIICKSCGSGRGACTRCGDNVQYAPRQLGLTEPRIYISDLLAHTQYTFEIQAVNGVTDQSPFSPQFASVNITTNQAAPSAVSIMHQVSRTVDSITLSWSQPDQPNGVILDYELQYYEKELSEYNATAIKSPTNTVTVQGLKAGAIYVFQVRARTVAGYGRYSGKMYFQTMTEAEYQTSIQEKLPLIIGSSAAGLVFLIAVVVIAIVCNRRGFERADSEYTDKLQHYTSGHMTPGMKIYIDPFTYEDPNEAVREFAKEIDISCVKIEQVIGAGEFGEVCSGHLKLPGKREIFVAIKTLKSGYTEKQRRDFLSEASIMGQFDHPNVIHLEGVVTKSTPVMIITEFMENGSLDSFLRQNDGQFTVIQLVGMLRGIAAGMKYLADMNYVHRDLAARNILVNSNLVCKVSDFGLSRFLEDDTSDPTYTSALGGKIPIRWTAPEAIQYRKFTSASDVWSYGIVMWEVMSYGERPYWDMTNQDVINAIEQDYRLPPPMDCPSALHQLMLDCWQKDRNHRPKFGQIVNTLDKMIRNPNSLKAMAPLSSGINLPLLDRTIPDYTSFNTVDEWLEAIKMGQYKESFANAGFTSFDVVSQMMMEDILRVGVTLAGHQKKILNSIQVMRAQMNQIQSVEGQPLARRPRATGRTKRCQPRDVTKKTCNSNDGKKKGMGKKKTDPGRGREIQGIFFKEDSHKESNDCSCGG

ERK5 = ERK5 (Homo sapiens, UniProt Q13164); conditions: read-out: CPT-1-70-1 (1uM) % control
Chain of ERK5 (Q13164 whole entry): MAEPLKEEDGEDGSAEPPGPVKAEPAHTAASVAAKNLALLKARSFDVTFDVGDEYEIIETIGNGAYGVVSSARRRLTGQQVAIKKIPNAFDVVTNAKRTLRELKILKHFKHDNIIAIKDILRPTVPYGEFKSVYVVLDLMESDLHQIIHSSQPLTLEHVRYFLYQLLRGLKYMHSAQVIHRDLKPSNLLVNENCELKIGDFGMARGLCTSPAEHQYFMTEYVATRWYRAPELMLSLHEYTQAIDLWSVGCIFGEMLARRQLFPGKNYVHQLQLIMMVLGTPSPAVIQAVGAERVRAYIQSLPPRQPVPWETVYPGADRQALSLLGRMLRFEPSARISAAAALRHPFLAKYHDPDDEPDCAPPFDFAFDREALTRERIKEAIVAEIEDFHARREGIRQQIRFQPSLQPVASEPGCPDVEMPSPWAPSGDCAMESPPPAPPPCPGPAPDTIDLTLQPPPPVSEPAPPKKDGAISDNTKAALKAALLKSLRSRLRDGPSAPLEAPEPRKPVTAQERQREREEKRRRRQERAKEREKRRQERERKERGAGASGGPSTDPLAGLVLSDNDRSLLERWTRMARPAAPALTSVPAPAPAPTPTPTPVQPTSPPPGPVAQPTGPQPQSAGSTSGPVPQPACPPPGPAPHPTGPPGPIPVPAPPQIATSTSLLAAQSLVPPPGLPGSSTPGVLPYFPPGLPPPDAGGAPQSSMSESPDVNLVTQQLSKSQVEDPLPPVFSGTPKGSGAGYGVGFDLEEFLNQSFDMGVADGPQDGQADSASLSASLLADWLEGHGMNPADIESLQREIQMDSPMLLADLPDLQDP

EPHB6 = EPHB6 (Homo sapiens, UniProt O15197); conditions: read-out: CPT-1-70-1 (1uM) % control
ERK2 = ERK2 (Homo sapiens, UniProt P28482); conditions: read-out: CPT-1-70-1 (1uM) % control
EPHA8 = EPHA8 (Homo sapiens, UniProt P29322); conditions: read-out: CPT-1-70-1 (1uM) % control
ALK(C1156Y) = ALK(C1156Y) (Homo sapiens, UniProt Q9UM73, C1156Y); conditions: read-out: CPT-1-70-1 (1uM) % control
EPHA6 = EPHA6 (Homo sapiens, UniProt Q9UF33); conditions: read-out: CPT-1-70-1 (1uM) % control
EPHA1 = EPHA1 (Homo sapiens, UniProt P21709); conditions: read-out: CPT-1-70-1 (1uM) % control
EIF2AK1 = EIF2AK1 (Homo sapiens, UniProt Q9BQI3); conditions: read-out: CPT-1-70-1 (1uM) % control
ERK3 = ERK3 (Homo sapiens, UniProt Q16659); conditions: read-out: CPT-1-70-1 (1uM) % control
EPHB4 = EPHB4 (Homo sapiens, UniProt P54760); conditions: read-out: CPT-1-70-1 (1uM) % control
Chain of EPHB4 (P54760 whole entry): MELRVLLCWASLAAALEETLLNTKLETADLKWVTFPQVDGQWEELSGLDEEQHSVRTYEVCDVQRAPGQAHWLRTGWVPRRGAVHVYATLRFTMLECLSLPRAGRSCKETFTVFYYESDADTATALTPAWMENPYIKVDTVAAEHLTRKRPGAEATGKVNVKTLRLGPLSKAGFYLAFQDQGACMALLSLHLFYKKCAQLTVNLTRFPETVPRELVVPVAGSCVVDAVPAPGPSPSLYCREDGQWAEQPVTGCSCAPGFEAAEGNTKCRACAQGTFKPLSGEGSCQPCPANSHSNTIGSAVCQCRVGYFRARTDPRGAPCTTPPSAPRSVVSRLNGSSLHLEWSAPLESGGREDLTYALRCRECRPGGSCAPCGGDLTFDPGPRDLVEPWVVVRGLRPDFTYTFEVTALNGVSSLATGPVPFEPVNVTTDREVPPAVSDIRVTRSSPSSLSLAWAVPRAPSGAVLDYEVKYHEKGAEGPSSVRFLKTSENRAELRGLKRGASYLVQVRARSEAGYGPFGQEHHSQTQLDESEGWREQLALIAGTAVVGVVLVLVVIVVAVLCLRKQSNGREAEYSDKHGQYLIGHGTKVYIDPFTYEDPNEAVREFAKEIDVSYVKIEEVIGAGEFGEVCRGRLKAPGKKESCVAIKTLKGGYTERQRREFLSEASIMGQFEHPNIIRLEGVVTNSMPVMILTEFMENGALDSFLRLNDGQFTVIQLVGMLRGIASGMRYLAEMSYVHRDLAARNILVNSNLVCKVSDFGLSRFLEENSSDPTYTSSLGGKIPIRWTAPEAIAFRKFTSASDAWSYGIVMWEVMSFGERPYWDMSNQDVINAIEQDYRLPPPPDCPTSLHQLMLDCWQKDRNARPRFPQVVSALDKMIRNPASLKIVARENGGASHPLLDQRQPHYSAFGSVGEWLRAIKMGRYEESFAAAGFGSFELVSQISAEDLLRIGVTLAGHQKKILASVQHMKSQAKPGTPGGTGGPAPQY

EPHA4 = EPHA4 (Homo sapiens, UniProt P54764); conditions: read-out: CPT-1-70-1 (1uM) % control
EPHA2 = EPHA2 (Homo sapiens, UniProt P29317); conditions: read-out: CPT-1-70-1 (1uM) % control
EPHA7 = EPHA7 (Homo sapiens, UniProt Q15375); conditions: read-out: CPT-1-70-1 (1uM) % control
ERBB3 = ERBB3 (Homo sapiens, UniProt P21860); conditions: read-out: CPT-1-70-1 (1uM) % control
ERK8 = ERK8 (Homo sapiens, UniProt Q8TD08); conditions: read-out: CPT-1-70-1 (1uM) % control
EPHA3 = EPHA3 (Homo sapiens, UniProt P29320); conditions: read-out: CPT-1-70-1 (1uM) % control
BUB1 = BUB1 (Homo sapiens, UniProt O43683); conditions: read-out: CPT-1-70-1 (1uM) % control
ALK(L1196M) = ALK(L1196M) (Homo sapiens, UniProt Q9UM73, L1196M); conditions: read-out: CPT-1-70-1 (1uM) % control
[1] = target: ABL1(T315I)-nonphosphorylated (Homo sapiens, UniProt P00519, T315I)
[2] = target: ABL1(H396P)-nonphosphorylated (Homo sapiens, UniProt P00519, H396P)
KIT-autoinhibited = KIT-autoinhibited (Homo sapiens, UniProt P10721); conditions: read-out: CPT-1-70-1 (1uM) % control
CSF1R-autoinhibited = CSF1R-autoinhibited (Homo sapiens, UniProt P07333); conditions: read-out: CPT-1-70-1 (1uM) % control
FLT3-autoinhibited = FLT3-autoinhibited (Homo sapiens, UniProt P36888); conditions: read-out: CPT-1-70-1 (1uM) % control
[3] = read-out: CPT-1-70-1 (1uM) % control
[4] = read-out: HYJ-2-002-1 (1uM) % control

Chain of EPHB3 (P54753 whole entry): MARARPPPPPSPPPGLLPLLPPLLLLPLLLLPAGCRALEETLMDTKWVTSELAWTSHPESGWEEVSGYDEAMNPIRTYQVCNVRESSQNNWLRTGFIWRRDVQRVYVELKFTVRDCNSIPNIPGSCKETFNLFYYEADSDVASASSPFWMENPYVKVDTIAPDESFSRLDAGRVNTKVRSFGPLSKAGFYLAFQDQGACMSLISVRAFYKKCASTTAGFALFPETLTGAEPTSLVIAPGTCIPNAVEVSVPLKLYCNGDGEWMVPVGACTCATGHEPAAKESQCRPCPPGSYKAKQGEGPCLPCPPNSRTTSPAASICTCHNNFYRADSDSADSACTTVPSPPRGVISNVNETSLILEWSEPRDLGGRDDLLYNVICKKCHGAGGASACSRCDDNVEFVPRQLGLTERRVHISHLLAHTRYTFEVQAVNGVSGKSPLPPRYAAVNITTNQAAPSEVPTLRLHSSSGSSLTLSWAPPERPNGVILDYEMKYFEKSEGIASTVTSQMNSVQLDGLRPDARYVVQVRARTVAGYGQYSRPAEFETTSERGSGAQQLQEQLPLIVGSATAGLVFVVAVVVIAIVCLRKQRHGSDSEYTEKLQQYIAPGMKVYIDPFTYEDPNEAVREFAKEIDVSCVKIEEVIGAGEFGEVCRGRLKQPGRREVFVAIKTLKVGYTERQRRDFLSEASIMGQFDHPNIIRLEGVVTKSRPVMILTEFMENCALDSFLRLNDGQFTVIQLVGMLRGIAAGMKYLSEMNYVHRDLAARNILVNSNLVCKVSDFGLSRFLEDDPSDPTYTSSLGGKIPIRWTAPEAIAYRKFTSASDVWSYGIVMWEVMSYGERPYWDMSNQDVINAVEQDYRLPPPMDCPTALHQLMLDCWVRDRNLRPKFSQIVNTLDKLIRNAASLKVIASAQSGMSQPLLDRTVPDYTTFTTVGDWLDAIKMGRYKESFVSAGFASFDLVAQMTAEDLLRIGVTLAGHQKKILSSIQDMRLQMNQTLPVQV

## CN1CCN(c2ccc(Nc3nc(Oc4ccc(NC(=O)CCl)cc4)c4cc[nH]c4n3)cc2)CC1 [CPT1-70-1]
EPHB1
  remaining activity at 1 µM: 84%
EPHB3
  remaining activity at 1 µM: 100%
ERBB4
  remaining activity at 1 µM: 4.6%
ERBB2
  remaining activity at 1 µM: 57%
ERK1
  remaining activity at 1 µM: 100%
EPHB2
  remaining activity at 1 µM: 100%
ERK5
  remaining activity at 1 µM: 87%
EPHB6
  remaining activity at 1 µM: 44%
ERK2
  remaining activity at 1 µM: 100%
EPHA8
  remaining activity at 1 µM: 53%
ALK(C1156Y)
  remaining activity at 1 µM: 52%
EPHA6
  remaining activity at 1 µM: 100%
EPHA1
  remaining activity at 1 µM: 79%
EIF2AK1
  remaining activity at 1 µM: 100%
ERK3
  remaining activity at 1 µM: 1%
EPHB4
  remaining activity at 1 µM: 100%
EPHA4
  remaining activity at 1 µM: 94%
EPHA2
  remaining activity at 1 µM: 96%
EPHA7
  remaining activity at 1 µM: 62%
ERBB3
  remaining activity at 1 µM: 53%
ERK8
  remaining activity at 1 µM: 86%
EPHA3
  remaining activity at 1 µM: 100%
BUB1
  remaining activity at 1 µM: 85%
ALK(L1196M)
  remaining activity at 1 µM: 100%
[1]; [3]
  remaining activity at 1 µM: 46%
[2]; [3]
  remaining activity at 1 µM: 7.2%
KIT-autoinhibited
  remaining activity at 1 µM: 39%
CSF1R-autoinhibited
  remaining activity at 1 µM: 1.4%
FLT3-autoinhibited
  remaining activity at 1 µM: 38%

## CCN1CCN(Cc2ccc(NC(=O)c3ccc(C)c(CCc4cnc5[nH]ccc5c4OC)c3)cc2C(F)(F)F)CC1 [HYJ-2-002-1]
[1]; [4]
  remaining activity at 1 µM: 9%
[2]; [4]
  remaining activity at 1 µM: 0%

Reference: paper doi:10.1101/2020.06.11.145995v1 (biorxiv, 2020)
